Oc1ccc(/C=C/c2cc(O)cc(O)c2)cc1
solubility (mole fraction)
Conditions | 288.15 K | 293.15 K | 298.15 K | 303.15 K | 308.15 K | 313.15 K
in transcutol | 0.148 | 0.15 | 0.153 | 0.156 | 0.159 | 0.161
in water | 1.29e-06 | 1.91e-06 | 2.78e-06 | 4e-06 | 5.74e-06 | 8.03e-06

— BigSolDB 2.1
